Test results reported in PMC9913425, “Pentacyclic Triterpenoids-Based Ionic Compounds: Synthesis, Study of Structure–Antitumor Activity Relationship, Effects on Mitochondria and Activation of Signaling Pathways of Proliferation, Genome Reparation and Early Apoptosis” (Cancers, 2023).

Legend:
Format in all cases: cell-based
Jurkat cells [1] = experiment: Apoptosis/necrosis induction (Annexin V Alexa Fluor488, 7AAD staining); conditions: compound at IC50 concentration, incubation 2 h
Summary of the method: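 Jurkat cells stained with Annexin V Alexa Fluor488, 7AAD and MitoSense Red to assess membrane state, DNA and mitochondrial membrane integrity, distinguishing apoptosis from necrosis; lower MitoSense Red fluorescence marks mitochondrial damage.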

[2] = system: mitochondria of Jurkat tumor cells; experiment: Mitochondrial damage (MitoSense Red staining); conditions: compound at IC50 concentration, incubation 2 h
K562 = experiment: In vitro cytotoxicity, IC50 by flow cytometry (Guava ViaCount)
Summary of the method: (§1)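 Cells were grown at 37 °C under 5% CO2; the Jurkat, K562 and HL60 lines were kept in RPMI 1640 with 10% FBS, […] and penicillin–streptomycin. Cells were seeded at 5 × 10^4 per well and incubated overnight. IC50 was derived from Guava ViaCount flow cytometry.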

Jurkat = experiment: as above; conditions: Jurkat cells
Summary of the method: as §1

HEK293 = experiment: as above; conditions: conditionally normal
Summary of the method: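 Suspension lines kept in RPMI 1640 with 10% FBS and […] at 37 °C, 5% CO2; cells seeded at 5 × 10^4 per well and incubated overnight before compound exposure. Viability counted by flow cytometry with Guava ViaCount staining to derive IC50.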

ATR kinase = experiment: Luminex xMAP DNA Damage/Genotoxicity panel, ATR kinase content; conditions: Jurkat cells; 12a 0.006 µM, 13d 0.004 µM per 100,000 cells; 6 and 12 h
p21 = experiment: Luminex xMAP panel, p21 protein content; conditions: Jurkat cells; 12a 0.006 µM, 13d 0.004 µM per 100,000 cells; first 6 h
Chk2 = experiment: Luminex xMAP DNA Damage/Genotoxicity panel, phosphorylated Chk2; conditions: Jurkat cells; 12a 0.006 µM, 13d 0.004 µM per 100,000 cells; 6 and 12 h
Source text: [Worded in the source for another target; used here, by the source, with some conditions changed.] (§2) The determination of proteins in a cell by Luminex xMAP technology is characterized by the presence of multiplex multiparametric analysis with the simultaneous use of a multiplex of antibodies with a fluorescent label and magnetic particles, thereby resulting in an increase in the sensitivity of the technique and expansion of the dynamic range, as well as an increase in detection accuracy. Luminex XMAP technology provides a simultaneous analysis of a sufficient number of different proteins in various types of biological fluids (plasma, serum, cerebrospinal fluid, follicular fluid, tissue lysate, etc.) and in cell supernatants. Consequently, multiplexing saves time/costs and ensures the same conditions for the measurements, which is essential for significance and statistical processing.
Magnetic microspheres (stained inside with two fluorescent dyes) in combination with monoclonal antibodies against the analyzed analytes (the main intracellular kinases in this case) are incubated with the samples and standards; then, the samples/standards are incubated with biotinylated monoclonal antibodies against the analyzed analytes and, finally, with a solution of streptavidin–phycoerythrin. The Luminex technology identifies the different proteins present in each well and converts the mean fluorescence intensity (MFI) of each measured cytokine to pg/mL using software and standard curves. This approach is successfully applied in fundamental and clinical research. In this work, we analyzed various protein analytes that make up the phosphorylated and non-phosphorylated fractions of the main kinases in the signaling pathways: CREB, JNK, NFkB, p38, ERK1/2, Akt, p70S6K, STAT3, STAT5 proteins in six samples of lysates of Jurkat tumor cells by Luminex technology (MILLIPLEX® MAP 9-Plex Multi-Pathway 9-plex Magnetic Bead Kit).

STAT5 = experiment: Luminex xMAP Multi-Pathway 9-plex, tyrosine-phosphorylated STAT5; conditions: Jurkat cells; 12a 0.006 µM, 13d 0.004 µM per 100,000 cells; lasting up to 12 h
Source text: as §2, with “Consequently, multiplexing saves time/costs and ensures the same conditions for the measurements, which is essential for significance and statistical processing.” left out
Magnetic microspheres (stained inside with two fluorescent dyes) in combination with monoclonal antibodies against the analyzed analytes (the main intracellular kinases in this case) are incubated with the samples and standards; then, the samples/standards are incubated with biotinylated monoclonal antibodies against the analyzed analytes and, finally, with a solution of streptavidin–phycoerythrin. The Luminex technology identifies the different proteins present in each well and converts the mean fluorescence intensity (MFI) of each measured cytokine to pg/mL using software and standard curves. […]
The specific role of STAT3 and STAT5 was assessed by changes in the content of tyrosine-phosphorylated forms of these proteins (STAT3(ph) and STAT5(ph)). […]

Jurkat cells [3] = experiment: Cell cycle analysis (Guava Cell Cycle Reagent); conditions: IC50 concentration, 24 h, flow histogram
Description: Our findings are consistent with the literature data that many ICs predominantly affect the G2 and S phases, reducing them.
The incubation time of ionic liquids with cells was 24 h. […] It is listed because the picture prints the label with values. / The fit parameters printed in each histogram (RMS, Mean G1, Mean G2, G2/G1, CV G1, CV G2) were left out as statistics of the cell-cycle model.

CC1(C)CC[C@]2(C(=O)OCCCCCC[n+]3ccccc3)CC[C@]3(C)C(=CCC4[C@@]5(C)CC[C@H](O)C(C)(C)C5CC[C@]43C)C2C1 (stereo partly drawn) [12a, 1-(6-{[(3β)-3-Hydroxyolean-12-en-28-oyl]oxy}hexyl)-pyridinium bromide] was tested, and the “Apoptosis (%) Early” value (Jurkat cells [1]) was 0%, the “Apoptosis (%) Late” value (Jurkat cells [1]) was 22.63% and the “Apoptosis (%) Necrosis” value (Jurkat cells [1]) was 65.18%. The “percentage of cells in the apoptotic state” value (Jurkat cells [1]) was 87.81%, the “Mito-Damage (%)” value [2] was 97.89% and the IC50 (K562; Homo sapiens, K562, K562 cells) was 7 ± 1 nM. The IC50 (Jurkat; Homo sapiens, Jurkat) was 6 ± 1 nM, the IC50 (HEK293; Homo sapiens, HEK293, HEK293 cells) was 44 ± 4 nM and the “level of ATR kinase” value (ATR kinase) was “significant increase”. For the same molecule, the “expression of p21 protein” value (p21) was “significantly increased”, the “content of phosphorylated checkpoint kinase Chk2” value (Chk2) was “significantly decreases” and the “increase in the content of STAT5” value (STAT5) was 3 fold.

CC(=O)[O-].C[n+]1ccn(CCCCCCOC(=O)[C@]23CCC(C)(C)CC2C2=CCC4[C@@]5(C)CC[C@H](O)C(C)(C)C5CC[C@@]4(C)[C@]2(C)CC3)c1 (stereo partly drawn) [13d, 1-(6-{[(3β)-3-Hydroxyolean-12-en-28-oyl]oxy}hexyl)-3-methylimidazolium Acetate] was tested, and the “Apoptosis (%) Early” value (Jurkat cells [1]) was 11.00%, the “Apoptosis (%) Necrosis” value (Jurkat cells [1]) was 85.0% and the “percentage of cells in the apoptotic state” value (Jurkat cells [1]) was 98.32%. The “Mito-Damage (%)” value [2] was 97.47%, the IC50 (K562; K562 cells) was 6 ± 1 nM and the IC50 (Jurkat) was 4 ± 1 nM. The IC50 (HEK293; HEK293 cells) was 29 ± 2 nM, the “level of ATR kinase” value (ATR kinase) was “significant increase” and the “expression of p21 protein” value (p21) was “significantly increased”. The “content of phosphorylated checkpoint kinase Chk2” value (Chk2) was “significantly decreases”, the “Freq Sub-G1 (hypodiploid cell population)” value (Jurkat cells [3]) was 6.91% and the “increase in the content of STAT5” value (STAT5) was 3 fold.
